Results as given in patent publication US20040106683A1, “Uses of benzylideneamino guanidines as ligands to the melnocortin receptors” (priority 2001, published 2004).
Where a name gives a salt, the structure may show the parent alone.

Legend:
[1] = biological target: T1, MC1 receptor (Mus musculus, UniProt Q01727); test: Affinity for the MC1-receptor, displacement of 125I-NDP-MSH in B16 mouse melanoma cells; conditions: endogenous mouse MC1, nb = non-binding, i.e. no affinity, read-out: Affinity for MC-receptors, Ki, MC1
T1 construct: B16 mouse melanoma cells were used, which endogenously express the (mouse) MC1 receptor; endogenous in cells; host or cells: B16 mouse melanoma cells
T1 sequence (Q01727 whole entry): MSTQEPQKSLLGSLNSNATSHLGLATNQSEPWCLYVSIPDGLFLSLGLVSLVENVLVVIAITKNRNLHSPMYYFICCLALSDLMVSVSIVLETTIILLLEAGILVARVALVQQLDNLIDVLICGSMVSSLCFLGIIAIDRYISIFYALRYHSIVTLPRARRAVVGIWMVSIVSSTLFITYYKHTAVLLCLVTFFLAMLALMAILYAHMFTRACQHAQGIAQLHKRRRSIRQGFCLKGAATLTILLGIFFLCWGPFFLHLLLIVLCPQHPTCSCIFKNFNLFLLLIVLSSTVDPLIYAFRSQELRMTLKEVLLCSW
Method: Test 1. Affinity for the MC1-Receptor
(§1) Essentially, the affinity of the compounds for the different melanocortin receptors were determined by using either insect cells (Sf9) or COS cells, which were transfected with recombinant human MC3, MC4 or MC5 receptors. For the determination of the affinity for the MC1 receptor, B16 mouse melanoma cells were used, which endogenously express the (mouse) MC1 receptor.
(§2) Incubation was performed in 96-well plates, using 50,000 cells/well (Sf9 or COS cells) up to 200,000 cells/well (mouse melanoma cells).
(§3) After the incubation, the cells were washed twice to get rid of the excess tracer and compound, and the cells were lysed with 0.1 M NaOH. The lysate was counted in a gamma-counter, binding was calculated and the affinity determined.

[2] = biological target: T2, recombinant human MC5 receptor (Homo sapiens, UniProt P33032); test: Affinity for the MC5-receptor, displacement of 125I-NDP-MSH in transfected Sf9 or COS cells; conditions: nb = non-binding, i.e. no affinity, read-out: Affinity for MC-receptors, Ki, MC5
T2 construct: expressed in transfected cells; host or cells: Sf9 insect cells or COS cells
T2 sequence (P33032 whole entry): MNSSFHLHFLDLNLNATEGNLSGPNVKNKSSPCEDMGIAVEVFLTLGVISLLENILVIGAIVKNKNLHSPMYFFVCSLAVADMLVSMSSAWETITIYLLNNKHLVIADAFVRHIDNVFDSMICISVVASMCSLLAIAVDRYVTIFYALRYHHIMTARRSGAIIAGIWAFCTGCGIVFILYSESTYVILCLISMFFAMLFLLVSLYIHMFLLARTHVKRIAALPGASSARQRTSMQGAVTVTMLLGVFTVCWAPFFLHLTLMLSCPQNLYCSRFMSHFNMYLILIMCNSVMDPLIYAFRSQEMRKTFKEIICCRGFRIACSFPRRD
Method: (§4) Test 2. Affinity for the MC3-Receptors, the MC4-Receptors and the MC5-Receptors
as §1, §2, §3

[3] = biological target: T3, recombinant human MC4 receptor (Homo sapiens, UniProt P32245); test: Affinity for the MC4-receptor, displacement of 125I-NDP-MSH in transfected Sf9 or COS cells; conditions: nb = non-binding, i.e. no affinity, read-out: Affinity for MC-receptors, Ki, MC4
T3 construct: expressed in transfected cells; host or cells: Sf9 insect cells or COS cells
T3 sequence (P32245 whole entry): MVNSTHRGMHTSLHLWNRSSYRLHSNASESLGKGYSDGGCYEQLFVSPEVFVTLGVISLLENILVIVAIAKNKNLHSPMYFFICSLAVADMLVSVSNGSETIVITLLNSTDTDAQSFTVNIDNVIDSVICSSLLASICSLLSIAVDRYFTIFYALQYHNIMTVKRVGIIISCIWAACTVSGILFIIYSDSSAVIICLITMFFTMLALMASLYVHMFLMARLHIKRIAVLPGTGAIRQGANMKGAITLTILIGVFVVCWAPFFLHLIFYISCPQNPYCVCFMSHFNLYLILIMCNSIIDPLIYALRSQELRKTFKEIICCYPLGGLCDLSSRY
Method: as §4, §1, §2, §3

[4] = biological target: T4, recombinant human MC3 receptor (Homo sapiens, UniProt P41968); test: Affinity for the MC3-receptor, displacement of 125I-NDP-MSH in transfected Sf9 or COS cells; conditions: nb = non-binding, i.e. no affinity, read-out: Affinity for MC-receptors, Ki, MC3
T4 construct: expressed in transfected cells; host or cells: Sf9 insect cells or COS cells
T4 sequence (P41968 whole entry): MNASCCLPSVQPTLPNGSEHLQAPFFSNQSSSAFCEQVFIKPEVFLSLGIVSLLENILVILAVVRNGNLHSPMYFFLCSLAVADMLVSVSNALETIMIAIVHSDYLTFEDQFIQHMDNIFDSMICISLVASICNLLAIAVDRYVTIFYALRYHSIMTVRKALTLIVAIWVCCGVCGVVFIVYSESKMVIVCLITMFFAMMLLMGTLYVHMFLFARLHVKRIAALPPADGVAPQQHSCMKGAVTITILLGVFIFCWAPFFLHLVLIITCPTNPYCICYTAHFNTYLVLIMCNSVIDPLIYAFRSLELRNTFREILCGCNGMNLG
Method: as §4, §1, §2, §3

## N=C(N)NN=Cc1cccc(Br)c1 [1:21, N-(3-Bromobenzylideneamino)guanidine]
[1]
  Ki: 1.2 µM
[2]
  Ki: 30.6 µM
[3]
  Ki: 5.4 µM
[4]
  Ki: 46 µM

## N=C(N)NN=Cc1cc2c(cc1[N+](=O)[O-])OCO2 (as salt: salt) [1:17, N-(4,5-Methylenedioxy-2-nitrobenzylideneamino)guanidine]
other
  melting point: 205 to 212 °C (dec.)

## N=C(N)NN=Cc1cc(O)ccc1Br [1:15, N-(2-Bromo-5-Hydroxybenzylideneamino)guanidine]
[1]
  Ki: 1.3 µM
[2]
  Ki: 68 µM
[3]
  Ki: 6.8 µM

## N=C(N)NN=Cc1cc2c(cc1[N+](=O)[O-])OCO2 [1:17, N-(4,5-Methylenedioxy-2-nitrobenzylideneamino)guanidine]
[1]
  Ki: 2.1 µM
[2]
  Ki: > 200 µM
[3]
  Ki: 28 µM
[4]
  Ki: > 200 µM

## N=C(N)NN=Cc1ccccc1Br [1:14, N-(2-Bromobenzylideneamino)guanidine]
[1]
  Ki: 0.6 µM
[3]
  Ki: 0.9 µM
[4]
  Ki: 74.6 µM

## N=C(N)NN=Cc1ccccc1Br (as salt: HCl) [1:14, N-(2-Bromobenzylideneamino)guanidine]
other
  melting point: 197 to 201 °C

## N=C(N)NN=Cc1cccc(Br)c1 (as salt: salt) [1:21, N-(3-Bromobenzylideneamino)guanidine]
other
  melting point: 160 to 161.5 °C

## N=C(N)NN=Cc1cc(O)ccc1Br (as salt: HCl) [1:15, N-(2-Bromo-5-Hydroxybenzylideneamino)guanidine]
other
  melting point: 223 to 228 °C (dec.)
